Measured values as given in publication PMC12238723, “Phase I Clinical Trial of CVL218, a Novel PARP1/2 Inhibitor, in Patients with Advanced Solid Tumors” (MedComm, 2025).

Test system: advanced solid tumors
Assay: Antitumor activity, tumor response per RECIST 1.1 and PFS
Assay type: in vivo, patients
From the text: This study was a single‐arm, dose‐escalation phase I trial conducted in Sun Yat‐sen University Cancer Center in China. This study assessed CVL218 in patients with histologically or cytologically confirmed advanced solid tumors who were in PD after standard therapeutic regimens or lacked standard treatment options. Inclusion criteria included: age 18–75 years; with at least one measurable and evaluable target lesion per Response Evaluation Criteria in Solid Tumors 1.1 (RECIST 1.1); ECOG performance status of 0 or 1; adequate hematological, renal, cardiac, and hepatic functions and a life expectancy ≥12 weeks. Key exclusion criteria included prior usage of PARP inhibitors; allergic to the research drug or its components; with active, unstable systemic diseases or active, uncontrolled infection; a history of other malignancies within 5 years, and pregnant or lactating women.
Single‐dose and multiple‐dose PK parameters included C max, T max, elimination half‐life (T 1/2), AUC0– t , AUC0–inf, oral clearance (CL/F), and apparent volume of distribution (V z/F) for CVL218. Tumor response was assessed per RECIST 1.1. ORR was defined as proportion of patients with a CR or PR on at least one visit, while DCR was defined as proportion of patients with a CR or PR or SD. PFS was defined as the time from the first dose of either drug to investigator assessed radiologic PD or to death of any cause. PFS would be censored at the time of last tumor assessment.
Subjects who received at least one dose of CVL218 with postadministration safety records were included in safety analysis set. Subjects who received at least one dose of CVL218 with at least one evaluable PK parameter were included in PK analysis set. Per‐protocol set were used for efficacy analysis. Descriptive statistics of safety were presented per CTCAE v5.0. The PK parameters T max and T 1/2 were shown as the median (min, max) and mean ± SD, respectively. A two‐sided p < 0.05 was considered to indicate statistical significance. Statistical analysis was performed by using GraphPad prism 8.0.2 and R‐4.3.3.

Compound: CNCc1ccc(-c2cc3cc(F)cc(C(N)=O)c3o2)cc1.Cl [CVL218]
- BOR, CR (50 mg BID (N = 1)): 0 n (%)
- BOR, PD (50 mg BID (N = 1)): 1 (100) n (%)
- BOR, PR (50 mg BID (N = 1)): 0 n (%)
- DCR (50 mg BID (N = 1)): 0 (0, 97.50) n (%) (95%CI)
- ORR (50 mg BID (N = 1)): 0 (0, 97.5) n (%) (95%CI)
- mPFS (50 mg BID (N = 1)): 1.05 months
- BOR, CR (100 mg BID (N = 1)): 0 n (%)
- BOR, PD (100 mg BID (N = 1)): 1 (100) n (%)
- BOR, PR (100 mg BID (N = 1)): 0 n (%)
- DCR (100 mg BID (N = 1)): 0 (0, 97.50) n (%) (95%CI)
- ORR (100 mg BID (N = 1)): 0 (0, 97.5) n (%) (95%CI)
- mPFS (100 mg BID (N = 1)): 1.05 months
- BOR, CR (200 mg BID (N = 1)): 0 n (%)
- BOR, PD (200 mg BID (N = 1)): 0 n (%)
- BOR, PR (200 mg BID (N = 1)): 0 n (%)
- DCR (200 mg BID (N = 1)): 1 (100) (2.5, 100.0) n (%) (95%CI)
- ORR (200 mg BID (N = 1)): 0 (0, 97.5) n (%) (95%CI)
- mPFS (200 mg BID (N = 1)): 1.97 months
- BOR, CR (350 mg BID (N = 4)): 0 n (%)
- BOR, PD (350 mg BID (N = 4)): 1 (25.0) n (%)
- BOR, PR (350 mg BID (N = 4)): 0 n (%)
- DCR (350 mg BID (N = 4)): 3 (75.0) (19.4, 99.4) n (%) (95%CI)
- ORR (350 mg BID (N = 4)): 0 (0, 60.2) n (%) (95%CI)
- mPFS (350 mg BID (N = 4)): 2.34 months
- BOR, CR (500 mg BID (N = 4)): 0 n (%)
- BOR, PD (500 mg BID (N = 4)): 1 (25.0) n (%)
- BOR, PR (500 mg BID (N = 4)): 0 n (%)
- DCR (500 mg BID (N = 4)): 3 (75.0) (19.4, 99.4) n (%) (95%CI)
- ORR (500 mg BID (N = 4)): 0 (0, 60.2) n (%) (95%CI)
- mPFS (500 mg BID (N = 4)): 3.27 months
- BOR, CR (600 mg BID (N = 3)): 0 n (%)
- BOR, PD (600 mg BID (N = 3)): 3 (100) n (%)
- BOR, PR (600 mg BID (N = 3)): 0 n (%)
- DCR (600 mg BID (N = 3)): 0 (0, 70.8) n (%) (95%CI)
- ORR (600 mg BID (N = 3)): 0 (0, 70.8) n (%) (95%CI)
- mPFS (600 mg BID (N = 3)): 1.02 months
- BOR, CR (700 mg BID (N = 6)): 0 n (%)
- BOR, PD (700 mg BID (N = 6)): 0 n (%)
- BOR, PR (700 mg BID (N = 6)): 0 n (%)
- DCR (700 mg BID (N = 6)): 6 (100) (54.1, 100.0) n (%) (95%CI)
- ORR (700 mg BID (N = 6)): 0 (0, 45.9) n (%) (95%CI)
- mPFS (700 mg BID (N = 6)): 2.27 months
- BOR, CR (850 mg BID (N = 4)): 0 n (%)
- BOR, PD (850 mg BID (N = 4)): 0 n (%)
- BOR, PR (850 mg BID (N = 4)): 0 n (%)
- DCR (850 mg BID (N = 4)): 4 (100) (39.8, 100.0) n (%) (95%CI)
- ORR (850 mg BID (N = 4)): 0 (0, 60.2) n (%) (95%CI)
- mPFS (850 mg BID (N = 4)): 2.35 months
- mPFS (7 breast cancer patients): 1.71 months
- mPFS (7 patients whose best overall response was PD): 1.05 months
- mPFS (10 patients on high-level doses (≥700 mg BID)): 2.35 months
- mPFS (14 patients on low-level doses (<700 mg BID)): 1.80 months
- mPFS (17 patients with SD): 2.79 months
- complete response (CR) or partial response (PR) (24 subjects of efficacy analysis set): none of them achieved complete response (CR) or partial response (PR)
- BOR, CR (Breast cancer (N=7)): 0 n (%)
- BOR, PD (Breast cancer (N=7)): 2 (28.6) n (%)
- BOR, PR (Breast cancer (N=7)): 0 n (%)
- DCR (Breast cancer (N=7)): 71.4 (29.0, 96.3) n (%) (95%CI)
- ORR (Breast cancer (N=7)): 0 (0, 41.0) n (%) (95%CI)
- mPFS (Breast cancer (N=7)): 1.71 months
- BOR, CR (Lung cancer (N=10)): 0 n (%)
- BOR, PD (Lung cancer (N=10)): 4 (40.0) n (%)
- BOR, PR (Lung cancer (N=10)): 0 n (%)
- ORR (Lung cancer (N=10)): 0 (0, 30.9) n (%) (95%CI)
- mPFS (Lung cancer (N=10)): 2.12 months
- BOR, CR (Other types (N=7)): 0 n (%)
- BOR, PD (Other types (N=7)): 1 (14.3) n (%)
- BOR, PR (Other types (N=7)): 0 n (%)
- DCR (Other types (N=7)): 85.7 (42.1, 99.6) n (%) (95%CI)
- ORR (Other types (N=7)): 0 (0, 41) n (%) (95%CI)
- mPFS (Other types (N=7)): 1.91 months
- BOR, CR (Overall (N = 24)): 0 n (%)
- BOR, PD (Overall (N = 24)): 7 (29.2) n (%)
- BOR, PR (Overall (N = 24)): 0 n (%)
- DCR (Overall (N = 24)): 17 (70.8) (48.9, 87.4) n (%) (95%CI)
- ORR (Overall (N = 24)): 0 (0, 14.3) n (%) (95%CI)
- mPFS (Overall (N = 24)): 1.89 months
- median PFS (mPFS) (all subjects, PFS events in 24 patients): 1.89 months
- DCR (breast cancer): 71.4%
- disease control rate (DCR) (high-level doses (≥700 mg BID, n = 10)): 100%
- disease control rate (DCR) (low-level dose group (<700 mg BID, n = 14)): 50%
- DCR (lung cancer): 60%
- DCR (other cancers): 85.7%
- disease control rate (DCR) (overall, 24 patients): 70.8%
- mPFS (patients with lung cancer): 2.12 months
- disease control rate (DCR) (recommended dose (700 mg BID, n = 6)): 100%
- mPFS (seven patients with other cancer types): 1.91 months
